Experimental data: patent US20100152434A1, “Protein Kinase-binding Nucleosides and Associated Methods” (priority 2007, published 2010)

How the values were obtained:
RXF 393 = conditions: RXF393; single dose (10 μM)
LOX IMVI = conditions: single dose (10 μM)
HOP-92 = conditions: single dose (10 μM)
UO-31 = conditions: single dose (10 μM)
MOLT-4 = conditions: single dose (10 μM)

CNC(=O)NC[C@H]1O[C@@H](n2cnc3c(NC(=O)Nc4ccccc4)ncnc32)C2OC(=O)C[C@H]21 (some centres unmarked) [Compound 33, 3′-(Carboxymethyl)-3′,5′-dideoxy-5′-[(N-methylcarbamoyl)amino]-N^6-(N-phenylcarbamoyl)adenosine-2′,3′-lactone]
anticancer activity (GI) (RXF 393): potent and selective anticancer activities
anticancer activity (GI) (LOX IMVI): potent and selective anticancer activities
anticancer activity (GI) (HOP-92): potent and selective anticancer activities
anticancer activity (GI) (UO-31): potent and selective anticancer activities
anticancer activity (GI) (MOLT-4): potent and selective anticancer activities
